From patent US20180251425A1, “2,3,5 TRISUBSTITUTED PYRROLE DERIVATIVES AS TOPOISOMERASE INHIBITORS AND THERAPEUTIC USES THEREOF” (UNIVERSITY OF MYSORE, priority 2015, published 2018)

How the values were obtained:
Format in all cases: cell-based
Molt4 = assay: Cytotoxicity (MTT / trypan blue) in Molt4 cells; conditions: Homo sapiens, MOLT-4, read-out: Cytotoxicity IC 50 in μM (Cell lines) Molt4
Protocol: (§1) Human cancer cell lines, K562, MCF7, HeLa and HEK 293T were purchased from National Centre for Cell Science, Pune, India. Cells were grown in RPMI 1640/MEM/DMEM supplemented with 10% heat-inactivated fetal bovine serum (FBS), 100 U/mL of Penicillin, and 100 μg of streptomycin/mL and incubated at 37° C. in a humidified atmosphere containing 5% CO2.
(§2) Nalm6, Molt4 and Reh cells were provided by Dr. Sathees C. Raghavan, Department of Biochemistry, IISc, Bangalore. The cells were grown under the similar culture conditions as mentioned above.
(§3) The human T cell leukemia cell line Molt4, Human acute lymphoblastic leukemia (ALL) cell line Nalm6, Human acute myelocytic leukemia (AML) cell line Reh, chronic myelogenous leukemia (CML) cell line K562, Human breast adenocarcinoma cell lines like MCF7 and human kidney cell line HEK 293T (Human embryonic kidney cell line) were selected for the purpose of preliminary anticancer screening of newly synthesized compounds (ASR1 to ASR15). To check the cytotoxicity, trypan blue dye exclusion assays, MTT assay were employed as described earlier Further, Cell cycle analysis, Mitochondrial membrane potential, Annexin-V FITC staining assay were also performed in order to understand the mode of cell death after treatment with ASR6. Further, ASR6 was also tested for its ability to inhibit topoisomerase I and II activity in vitro.
(§4) Cytotoxic effect of the newly synthesized compounds against leukemic cells was assessed using 3-(4, 5-dimethyl-2-yl02, 5-diphenyl tetrazolium bromide (MTT) assay. After exposure of compound at different concentration (0.01, 0.1, 0.5, 1, 10, 50 and 100 μM) cells were harvested and transferred into 96 well plate, MTT (5 mg/ml) was added and incubate at 37° C. for 4 h and formazan crystals were dissolved by adding solubilizing agent (10% SDS and 50% dimethyl formamide) for 1 h, finally plate was read at 570 nm (Bio-Rad, USA). Results were represented as inhibition of percentage of cell proliferation in bar diagram (n=3) (FIGS. 1 A, C, E and G).
(§5) To determine the growth inhibitory activity of the drug, 0.5×10^5 cell/ml were plated in 24 well (Biofil, USA.) in 1 ml of complete medium and treated with various concentration of the compound to test, cells were stained with 0.4% trypan blue and counted on a hemocytometer after treatment with compounds at 48 and 72 h time point. Results were represented as number of viable cells/ml in bar diagram (FIGS. 1 B, D, F, and H) (n=3).

Nalm6 = assay: Cytotoxicity (MTT / trypan blue) in Nalm6 cells; conditions: Homo sapiens, NALM-6, read-out: Cytotoxicity IC 50 in μM (Cell lines) Nalm6
Protocol: as §1, §2, §3, §4, §5

Reh = assay: Cytotoxicity (MTT / trypan blue) in Reh cells; conditions: Homo sapiens, read-out: Cytotoxicity IC 50 in μM (Cell lines) Reh
Protocol: as §1, §2, §3, §4, §5

K562 = assay: Cytotoxicity (MTT / trypan blue) in K562 cells; conditions: Homo sapiens, read-out: Cytotoxicity IC 50 in μM (Cell lines) K562
Protocol: as §1, §3, §4, §5

MCF7 = assay: Cytotoxicity in MCF7 cells; conditions: Homo sapiens, read-out: Cytotoxicity IC 50 in μM (Cell lines) MCF7
Protocol: as §1, §3, §4, §5

HeLa = assay: Cytotoxicity in HeLa cells; conditions: Homo sapiens, read-out: Cytotoxicity IC 50 in μM (Cell lines) HeLa
Protocol: as §1
as §4, with “G). […]” for “G).”

Structure (SMILES)	IC50 (Molt4) [µM]	IC50 (Nalm6) [µM]	IC50 (Reh) [µM]	IC50 (K562) [µM]	IC50 (MCF7) [µM]	IC50 (HeLa) [µM]
CCOC(=O)c1[nH]c(-c2ccc(OC)c(OC)c2)cc1-c1ccncc1 [ASR12, Ethyl 5-(3,4-dimethoxyphenyl)-3-(pyridin-4-yl)-1H-pyrrole-2-carboxylate]	26.1	14.3	> 100	> 100	> 100	> 100
CCOC(=O)c1[nH]c(-c2ccc(C)cc2)cc1-c1cccc([N+](=O)[O-])c1 [ASR4, Ethyl 3-(3-nitrophenyl)-5-p-tolyl-1H-pyrrole-2-carboxylate]	> 50	> 50	> 100	> 100	> 100	> 100
CCOC(=O)c1[nH]c(-c2cccs2)cc1-c1cccs1 [ASR8, Ethyl 3,5-di(thiophen-2-yl)-1H-pyrrole-2-carboxylate]	35.3	> 50	> 100	> 100	> 100	> 100
CCOC(=O)c1[nH]c(-c2cccs2)cc1-c1ccc(Br)cc1 [ASR9, Ethyl 3-(4-bromophenyl)-5-(thiophen-2-yl)-1H-pyrrole-2-carboxylate]	50	> 50	> 100	> 100	> 100	> 100
CCOC(=O)c1[nH]c(-c2ccc(OC)cc2)cc1-c1ccco1 [ASR3, Ethyl 3-(furan-2-yl)-5-(4-methoxyphenyl)-1H-pyrrole-2-carboxylate]	> 50	> 50	> 100	> 100	> 100	> 100
CCOC(=O)c1[nH]c(-c2ccc(OC)cc2)cc1-c1cccc(C)c1 [ASR2, Ethyl 5-(4-methoxyphenyl)-3-m-tolyl-1H-pyrrole-2-carboxylate]	> 50	> 50	> 100	> 100	> 100	> 100
CCOC(=O)c1[nH]c(-c2ccc(Cl)cc2)cc1-c1ccc2ccccc2c1 [ASR7, Ethyl 5-(4-chlorophenyl)-3-(naphthalen-2-yl)-1H-pyrrole-2-carboxylate]	30.8	> 50	> 100	> 100	> 100	> 100
CCOC(=O)c1[nH]c(-c2ccc(OC)c(OC)c2)cc1-c1ccc(C(F)(F)F)cc1 [ASR10, Ethyl 5-(3,4-dimethoxyphenyl)-3-(4-(trifluoromethyl)phenyl)-1H-pyrrole-2-carboxylate]	7.96	20	> 100	> 100	> 100	> 100
CCOC(=O)c1[nH]c(-c2ccc(C)cc2)cc1-c1ccc(C#N)cc1 [ASR5, Ethyl 3-(4-cyanophenyl)-5-p-tolyl-1H-pyrrole-2-carboxylate]	> 50	> 50	> 100	> 100	> 100	> 100
CCOC(=O)c1[nH]c(-c2cc(OC)c(OC)c(OC)c2)cc1-c1cccs1 [ASR14, Ethyl 3-(thiophen-2-yl)-5-(3,4,5-trimethoxyphenyl)-1H-pyrrole-2-carboxylate]	15.2	10.5	> 100	> 100	> 100	> 100
CCOC(=O)c1[nH]c(-c2ccccc2)cc1-c1ccccc1 [ASR1, Ethyl 3,5-diphenyl-1H-pyrrole-2-carboxylate]	> 50	> 50	> 100	> 100	> 100	> 100
COC(=O)c1[nH]c(-c2ccc(C)cc2)cc1-c1cccc([N+](=O)[O-])c1 [ASR13, Methyl 3-(3-nitrophenyl)-5-p-tolyl-1H-pyrrole-2-carboxylate]	8.84	11	> 100	> 100	> 100	> 100
COC(=O)c1[nH]c(-c2cccc(OC)c2)cc1-c1ccc(C(F)(F)F)cc1 [ASR11, Methyl 5-(3-methoxyphenyl)-3-(4-(trifluoromethyl)phenyl)-1H-pyrrole-2-carboxylate]	17	9.53	> 100	> 100	> 100	> 100
CCOC(=O)c1[nH]c(-c2cccc(OC)c2)cc1-c1ccncc1 [ASR15, Ethyl 5-(3-methoxyphenyl)-3-(pyridin-4-yl)-1H-pyrrole-2-carboxylate]	12.9	5.4	> 100	> 100	> 100	> 100
